These are literature values, as cited in patent US20230303507A1, “RIGID C[…] AS POTENT MODULATORS OF CANNABINOID RECEPTORS AND USES THEREOF” (priority 2020, published 2023).

The target of the data set is CB2 (Homo sapiens, UniProt P34972).

Each structure is given as a SMILES string.

CB2, sequence (P34972 whole entry, species assumed): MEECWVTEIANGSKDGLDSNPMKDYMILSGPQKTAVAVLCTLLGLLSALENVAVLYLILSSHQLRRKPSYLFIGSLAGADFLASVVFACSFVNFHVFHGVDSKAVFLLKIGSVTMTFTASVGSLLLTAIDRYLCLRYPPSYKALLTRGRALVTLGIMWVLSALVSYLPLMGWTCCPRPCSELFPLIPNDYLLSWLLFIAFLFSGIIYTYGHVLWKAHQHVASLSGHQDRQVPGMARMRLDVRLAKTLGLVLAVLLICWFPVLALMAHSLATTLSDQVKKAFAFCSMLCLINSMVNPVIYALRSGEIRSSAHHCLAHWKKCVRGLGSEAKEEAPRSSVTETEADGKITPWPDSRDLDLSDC

As for `C=C(C)[C@@H]1CCC(C)=C[C@H]1c1c(O)cc(CCCCC)cc1O` [CBD, cannabidiol], the “mode of action on CB2” value was “weak inverse agonist”. `CCCCCc1cc(O)c2c(c1)OC(C)(C)[C@@H]1CCC(C)=C[C@@H]21` [THC, delta-9-tetrahydrocannabinol]: the “mode of action on CB2” value is “partial agonist”.
